From US20230047208A1, “RNA Splicing Modulation” (The General Hospital Corporation, priority 2020, published 2023)

Experiments:
MLH1 c.1989 G>A, exon 17 = assay: MLH1 c.1989 G>A minigene exon 17 splicing in transfected cell lines; type: cell-based; details: 60 μM, 24 hours
Excerpt: (§1) FIGS. 4C-4F Upper row: The sequences at the 5′ splice site of Exon X in patient cells and minigene constructs are shown (FIGS. 4C-4F). The sequences around the 5′ splice site of Exon X are shown in LOGO plots, with the closely matched CNN motifs indicated beneath the plots. […] Middle row: RT-PCR experiments validated treatment responses in patient cell lines carrying specific splice site mutations. The upper bands indicate the isoform in which the middle Exon X is included while the lower bands indicate the isoform in which the middle Exon X is skipped. Each set of gels is one of the triplicates used to generate the bar plots beneath. […] The statistical significance, as shown in FIGS. 4C-4F, was determined via two-tailed, unpaired Student's test: *p<0.05; **p<0.01; ***p<0.001.
In another example from Table 18, a minigene encompassing MLH1 exons 16 to 18 and flanking exon 17 intronic sequences, with the c.1989 G>A mutation was prepared. This mutation was predicted by SpliceA1 to cause skipping of exon 17 in the MLH1 gene. […] The c.1989 G>A mutation in MLH1 is associated with hereditary nonpolyposis colorectal cancer (HNPCC) or Lynch syndrome (MIM #120435). Individuals with MLH1 mutations also have an increased risk of cancers of the endometrium, ovaries, stomach, small intestine, liver, gallbladder duct, upper urinary tract, and brain^14-16,65. […]

MAPT exon 10 = assay: MAPT minigene exon 10 splicing in transfected cell lines; type: cell-based; details: 60 μM, 24 hours, MAPT minigenes, all three mutations tested
Excerpt: as §1
In another example from Table 18, several MAPT minigenes encompassing exons 9 to 11 and flanking exon 10 intronic sequences, with the three mutations listed in Table 17: c.1866+3 G>A, c.1865 G>A or c.1788 T>G were prepared. These mutations were predicted by SpliceA1 to promote inclusion of MAPT exon 10. […] An increase in MAPT exon 10 inclusion is responsible for familial frontotemporal dementia and Parkinsonism linked to chromosome 17 (FTDP-17, MIM #600274). […]

ELP1 minigene = assay: Minigene splicing in transfected HEK293T cells, RT-PCR exon inclusion; type: cell-based, human
Procedure: HEK293T cells were seeded in 6-well culture plates at 1.20×10^6 cells/well in D-MEM, 10% FBS, without antibiotics and incubated overnight to reach approximately 90% confluence. Transfection was performed with FuGENE® HD Transfection Reagent (E2311, Promega) using the FuGENE-DNA ratio at 3.5:1 and following manufacturer protocol. After 4 hours of incubation at 37° C., cells were plated at a density of 3×10^4 cells/well in a poly-L-lysine coated 96-well plate for the dual luciferase minigene assay or at the density of 8.5×10^5 cells/well into 6-well plates for minigene transfection. […]
After treatment, the cells were collected and RNA was extracted with QIAzol Lysis Reagent (79306, Qiagen) following the manufacturer's instructions. The yields of the total RNA for each sample were determined using a Nanodrop ND-1000 spectrophotometer. […]
Ratios between isoforms having the middle exon included or excluded were obtained using the integrated density value (IDV) for each correspondent band, and then assessed using Alpha 2000™ Image Analyzer and quantified by ImageJ software. The level of exon inclusion was calculated as previously described^4, where the relative density value of the band represents inclusion and is expressed as a percentage. Validation of the semi-quantitative RT-PCR method for the measurement of exon inclusion was performed using RT-qPCR^4. […]

For Clc1nc(NCc2ccncc2)c2cc[nH]c2n1 [Compound (I), 2-chloro-N-(pyridin-4-ylmethyl)-7H-pyrrolo[2,3-d]pyrimidin-4-amine], the “exon 17 splicing” value (MLH1 c.1989 G>A, exon 17) was “significantly promoted exon 17 inclusion”, the “exon 10 splicing” value (MAPT exon 10) was “significantly promoted exon 10 exclusion” and the “ELP1 splicing in a minigene system” value (ELP1 minigene) was “corrected splicing of ELP1”.
